For this test, the system named is transplanted iPS-NPCs. Nature of the test: Survival of iPS-NPCs transplanted intracerebrally after focal cerebral ischemia in the rat (TUNEL). The class given is in vivo. From the text: iPS-MEF-Ng-20D-17 from Kyoto University, and Cell Bank of RIKEN BioResource Center of Japan (Okita K. et al. Nature (2007) 448(7151):313-17) was induced into iPS-NPCs using a multistage differentiation protocol with some modifications (Kumagai G. et al. PLoS ONE (2009) 4(11):e7706). In brief, the human iPS cells expanding on irradiated MEF feeder cells were passaged, and then transferred to nonadherent culture dishes where they readily formed spheroid embryoid bodies (EBs). Clusters of neuroepithelial-like cells could be isolated and propagated from EBs in the medium of DMEM-F12, N2 supplement (1%; Invitrogen), and 20 ng/mL FGF-2 (R&D Systems™, Germany).
Prior to transplantation, the iPS-NPSs were labeled using 1 μg/mL bis-benzimide (Hoechst™ 33342; Sigma™) for 1 hours at 37° C. as previously described (Shyu W C. et al. J Clin Invest (2008) 118(1):133-148). Labeled cells were then collected and washed in PBS three times. iPS-NPCs were counted using a cytometer to ensure an adequate cell number for transplantation. One week after brain ischemia, adult male Sprague-Dawley rats (weight >300 g) were anesthetized with chloral hydrate (0.4 g/kg, ip) and injected stereotaxically with approximately 1×10^6 cells in a 3-5 μL PBS suspension through a 26-gauge Hamilton syringe into 3 cortical areas adjacent to the right MCA, 3.0 to 5.0 mm below the dura. […]

“KEIVSRNKRRYQED-YGRKKRRQRRR (KEIVSRNKRRYQEDYGRKKRRQRRR; PTEN K13 interference peptide conjugated to TAT protein transduction domain) [Peptide-K13]”: the “TUNEL positive transplanted iPS-NPCs” value (7 days after transplantation, vs saline-treated rats, n=6) is reported as “significantly fewer”. Besides, where the note is “intravenous 8.4 mg/kg once a day for 7 days following transplantation, ischemic rat”, the “survival rate of transplanted iPS-NPCs” value is given as “significantly increased”.

The values are drawn from patent publication US9127079B2, “Inhibitors of phosphatase and tensin homolog (PTEN) conjugates” (THE UNIVERSITY OF BRITISH COLUMBIA, priority 2009, dated 2015).
